From patent publication US20230131025A1, “QUINOLYL PHOSPHINE OXIDE COMPOUND, AND COMPOSITION AND APPLICATION THEREOF” (Betta Pharmaceuticals Co., Ltd., priority 2020, published 2023)
pIC50: −log10 of the molar value.

Tests used:
EGFR WT = EGFR WT (Homo sapiens, UniProt P00533); test: Kinase inhibition assay (mobility shift); type: biochemical
How it was run: (§1)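 Caliper mobility-shift read of substrate conversion after kinase-compound preincubation 10 min at room temperature, then ATP/substrate addition and reaction at room temperature. Ten-point 3-fold dilutions from 3,000 or 100 nM top; IC50 from variable-slope four-parameter fit of percent inhibition.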

EGFR Δ19del/T790M/C797S = EGFR Δ19del/T790M/C797S (Homo sapiens, UniProt P00533, T790M/C797S, form not given); test: Kinase inhibition assay (mobility shift); type: biochemical
Chain of EGFR Δ19del/T790M/C797S (P00533 with tags, fused parts or gaps DEL746-750/T790M/C797S, form open): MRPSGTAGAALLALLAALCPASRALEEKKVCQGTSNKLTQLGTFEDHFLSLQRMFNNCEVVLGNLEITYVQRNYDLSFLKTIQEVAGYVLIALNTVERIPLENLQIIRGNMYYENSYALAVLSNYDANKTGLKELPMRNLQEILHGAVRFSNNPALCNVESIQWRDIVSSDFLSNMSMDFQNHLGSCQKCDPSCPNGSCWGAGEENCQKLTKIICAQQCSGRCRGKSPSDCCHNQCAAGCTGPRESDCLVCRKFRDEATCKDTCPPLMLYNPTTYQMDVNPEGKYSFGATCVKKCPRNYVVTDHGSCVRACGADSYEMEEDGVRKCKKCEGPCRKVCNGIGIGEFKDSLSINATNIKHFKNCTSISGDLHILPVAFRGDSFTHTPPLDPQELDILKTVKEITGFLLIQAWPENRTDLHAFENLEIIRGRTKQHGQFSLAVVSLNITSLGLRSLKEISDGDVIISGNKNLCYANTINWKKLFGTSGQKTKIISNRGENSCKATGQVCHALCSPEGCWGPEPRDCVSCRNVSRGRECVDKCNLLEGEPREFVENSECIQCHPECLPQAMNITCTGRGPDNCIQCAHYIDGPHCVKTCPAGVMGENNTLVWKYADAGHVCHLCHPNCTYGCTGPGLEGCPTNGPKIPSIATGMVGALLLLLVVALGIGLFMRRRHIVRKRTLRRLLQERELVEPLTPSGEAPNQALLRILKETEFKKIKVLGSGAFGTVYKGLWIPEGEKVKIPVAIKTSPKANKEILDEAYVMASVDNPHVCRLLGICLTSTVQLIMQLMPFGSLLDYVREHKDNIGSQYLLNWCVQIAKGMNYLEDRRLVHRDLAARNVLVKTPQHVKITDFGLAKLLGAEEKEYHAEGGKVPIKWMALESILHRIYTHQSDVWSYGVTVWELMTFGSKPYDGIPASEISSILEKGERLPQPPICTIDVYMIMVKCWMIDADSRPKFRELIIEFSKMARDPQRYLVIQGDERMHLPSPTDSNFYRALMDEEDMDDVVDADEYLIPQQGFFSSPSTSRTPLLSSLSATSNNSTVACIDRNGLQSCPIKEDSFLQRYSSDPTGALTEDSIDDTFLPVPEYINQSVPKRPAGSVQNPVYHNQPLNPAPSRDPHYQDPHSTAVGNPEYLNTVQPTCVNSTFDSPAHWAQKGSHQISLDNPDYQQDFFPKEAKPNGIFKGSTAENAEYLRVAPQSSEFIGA
How it was run: as §1

IGF1R = IGF1R (Homo sapiens, UniProt P08069); test: Kinase inhibition assay (mobility shift); type: biochemical
Chain of IGF1R (P08069 31-1367, species assumed): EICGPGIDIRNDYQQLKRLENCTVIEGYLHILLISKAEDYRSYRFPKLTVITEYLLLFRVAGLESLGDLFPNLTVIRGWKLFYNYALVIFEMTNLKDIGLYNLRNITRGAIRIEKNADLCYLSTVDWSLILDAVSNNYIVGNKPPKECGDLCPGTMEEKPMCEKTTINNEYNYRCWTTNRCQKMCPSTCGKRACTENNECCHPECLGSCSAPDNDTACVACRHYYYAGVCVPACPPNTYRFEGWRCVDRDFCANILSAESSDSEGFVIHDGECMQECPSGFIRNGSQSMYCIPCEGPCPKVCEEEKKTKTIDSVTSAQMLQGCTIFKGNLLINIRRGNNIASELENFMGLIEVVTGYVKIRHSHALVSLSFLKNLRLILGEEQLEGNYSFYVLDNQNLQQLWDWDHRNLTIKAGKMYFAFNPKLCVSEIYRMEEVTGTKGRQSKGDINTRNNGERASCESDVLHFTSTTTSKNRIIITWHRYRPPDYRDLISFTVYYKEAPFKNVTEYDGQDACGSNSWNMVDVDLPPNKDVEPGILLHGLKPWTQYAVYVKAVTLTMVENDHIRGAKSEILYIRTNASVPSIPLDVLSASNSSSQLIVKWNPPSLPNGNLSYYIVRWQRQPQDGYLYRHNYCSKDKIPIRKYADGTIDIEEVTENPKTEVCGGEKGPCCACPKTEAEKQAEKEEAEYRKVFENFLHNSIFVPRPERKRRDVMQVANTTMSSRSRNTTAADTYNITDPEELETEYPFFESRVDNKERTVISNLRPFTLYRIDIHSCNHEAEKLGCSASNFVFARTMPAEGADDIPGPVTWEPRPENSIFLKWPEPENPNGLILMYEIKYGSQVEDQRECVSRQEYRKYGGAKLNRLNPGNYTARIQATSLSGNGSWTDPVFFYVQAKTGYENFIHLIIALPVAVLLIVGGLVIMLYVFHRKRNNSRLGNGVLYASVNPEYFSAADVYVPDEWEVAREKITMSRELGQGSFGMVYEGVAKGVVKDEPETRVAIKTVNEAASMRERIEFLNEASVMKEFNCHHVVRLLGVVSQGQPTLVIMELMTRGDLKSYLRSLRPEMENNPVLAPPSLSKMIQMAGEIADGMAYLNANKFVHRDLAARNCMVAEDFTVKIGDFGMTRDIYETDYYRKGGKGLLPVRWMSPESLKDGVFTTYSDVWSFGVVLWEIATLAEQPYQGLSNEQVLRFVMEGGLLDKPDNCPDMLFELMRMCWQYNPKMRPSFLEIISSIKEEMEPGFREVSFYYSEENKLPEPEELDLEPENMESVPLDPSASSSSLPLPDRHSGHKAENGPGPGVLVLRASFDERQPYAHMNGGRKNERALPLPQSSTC
How it was run: as §1

Ba/F3 EGFR WT = Ba/F3 EGFR WT (Homo sapiens, UniProt P00533); test: Cell proliferation experiment (CellTiter Glo, 72 hours); type: cell-based; conditions: for GI50: read-out: BaF3 EGFR WT IC50
Chain of Ba/F3 EGFR WT (P00533 whole entry, stated change not applied): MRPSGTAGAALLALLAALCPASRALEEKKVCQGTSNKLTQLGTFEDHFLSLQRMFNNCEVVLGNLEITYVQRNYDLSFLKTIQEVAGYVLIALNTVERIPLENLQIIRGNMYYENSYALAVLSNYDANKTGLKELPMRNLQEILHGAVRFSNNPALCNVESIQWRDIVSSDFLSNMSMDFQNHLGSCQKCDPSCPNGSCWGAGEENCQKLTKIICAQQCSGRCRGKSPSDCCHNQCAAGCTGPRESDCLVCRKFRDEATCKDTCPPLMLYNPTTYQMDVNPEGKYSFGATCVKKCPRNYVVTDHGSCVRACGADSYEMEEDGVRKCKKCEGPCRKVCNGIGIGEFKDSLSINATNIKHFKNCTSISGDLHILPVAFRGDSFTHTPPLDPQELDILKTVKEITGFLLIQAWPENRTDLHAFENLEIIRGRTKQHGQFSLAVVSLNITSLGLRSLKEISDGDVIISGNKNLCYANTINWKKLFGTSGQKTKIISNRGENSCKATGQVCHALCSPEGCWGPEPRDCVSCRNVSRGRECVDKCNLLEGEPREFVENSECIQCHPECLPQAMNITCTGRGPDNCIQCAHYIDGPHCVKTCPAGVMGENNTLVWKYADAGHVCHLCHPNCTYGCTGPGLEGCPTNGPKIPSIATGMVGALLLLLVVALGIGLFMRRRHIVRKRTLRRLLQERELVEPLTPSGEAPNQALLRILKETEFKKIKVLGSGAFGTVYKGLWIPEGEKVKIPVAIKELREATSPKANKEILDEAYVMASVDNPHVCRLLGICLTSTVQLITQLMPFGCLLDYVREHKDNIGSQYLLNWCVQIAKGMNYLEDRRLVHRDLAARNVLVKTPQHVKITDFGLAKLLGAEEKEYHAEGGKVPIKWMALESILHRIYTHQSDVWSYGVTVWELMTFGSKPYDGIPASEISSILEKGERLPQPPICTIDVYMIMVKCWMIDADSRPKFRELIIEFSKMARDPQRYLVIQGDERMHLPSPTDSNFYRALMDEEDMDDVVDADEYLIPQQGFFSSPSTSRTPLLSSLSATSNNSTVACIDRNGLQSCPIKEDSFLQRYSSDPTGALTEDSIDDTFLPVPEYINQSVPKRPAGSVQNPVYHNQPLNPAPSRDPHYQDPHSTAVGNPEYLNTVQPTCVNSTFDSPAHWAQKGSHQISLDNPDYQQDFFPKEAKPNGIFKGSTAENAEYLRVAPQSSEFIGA
How it was run: (§2)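 Ba/F3 cells overexpressing EGFR Δ19del/T790M/C797S or EGFR WT were seeded at 2000 or 3000 cells/well and exposed 72 h to 9 compound concentrations (3-fold, top 10000 or 1111 nM final, 0.1% DMSO). CellTiter-Glo luminescence gave survival inhibition versus controls; IC50 from nonlinear fit.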

Ba/F3-Δ19del/T790M/C797S = Ba/F3-Δ19del/T790M/C797S (Homo sapiens, UniProt P00533, T790M/C797S, cells depend on it, form not given); test: as above; type: cell-based; conditions: for GI50: read-out: Ba/F3/EGFR Δ19del/T790M/C797S IC50
Chain of Ba/F3-Δ19del/T790M/C797S (P00533 with tags, fused parts or gaps DEL746-750/T790M/C797S, form open): as the sequence (P00533 with tags, fused parts or gaps DEL746-750/T790M/C797S, form open) above
How it was run: as §2

[1] = test system: human epidermal cancer cells A431 carrying EGFR WT; test: as above; type: cell-based; conditions: for pIC50: Homo sapiens, A-431
How it was run: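 Cells seeded at 2000 or 3000/well and exposed 72 h to 9-point 3-fold dilutions, top final 10000 nM or 1111 nM, 0.1% DMSO. Viability by CellTiter-Glo luminescence. Inhibition relative to cell and medium controls; IC50 by four-parameter nonlinear regression.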

[2] = In vivo efficacy data of Comparative example 1 cited from WO2019/015655A1, TGI and ED50 calculated; conditions: nonlinear fitting of dosage vs TGI calculated from cited data, FIG. 1
Protocol: Moreover, the data of Comparative example 1 (in the patent WO2019/015655A1) was cited in Table 4, and the TGI of each administration group was calculated. Nonlinear fitting was performed according to the administrating dosage and the tumor growth inhibition rate TGI (%) corresponding to each dosage using GraphPad Prism 8. The fitting formula is as follows and its ED50 (half effective dose) was calculated: Y=Bottom+(Top-Bottom)/(1+10^((Log ED50−X)*HillSlope)).
TGI was calculated according to the administration dosage and tumor growth volume of Comparative example 1. Nonlinear fitting was performed on the administration dosage and corresponding TGI (%). […] It can be seen that the half effective dose of compound J-022, which is 10 mg/kg/day, is equivalent to that of Comparative example 1.

[3] = In vivo safety experiment (body weight, tolerance); conditions: for Mortality of mice / Body weight of mouse: 75 mg/kg/day oral QD; for Mortality of mice: 7 consecutive days, 5 mice
Protocol: The safety evaluation of the drug was carried out in BALB/c nude mice. […] They were fed in an SPF environment, and each cage was individually ventilated (5 mice per cage). All cages, bedding and water were disinfected prior to use. Mice were purchased from Viton Lever and were allowed to acclimate in the laboratory. Mice were administered orally QD.

Compound	EGFR WT IC50 (EGFR WT)	pIC50 (EGFR WT)	EGFR Δ19del/T790M/C797S IC50 (EGFR Δ19del/T790M/C797S)	pIC50 (IGF1R)	IGF1R IC50 (IGF1R)	BaF3 EGFR WT IC50 (Ba/F3 EGFR WT)	GI50 (Ba/F3 EGFR WT) [nM]	Ba/F3/EGFR Δ19del/T790M/C797S IC50 (Ba/F3-Δ19del/T790M/C797S)	GI50 (Ba/F3-Δ19del/T790M/C797S) [nM]	A431 IC50 [1]	half effective dose ED50 (dosage at TGI 50%) [2] [mg/kg/day]	Mortality of mice [3]	Mortality of mice ([3]; listed as Comparative example 1)	Body weight of mouse ([3]; 2 days)	Body weight of mouse ([3]; 4 days)	window from the effective dose to the intolerance dose ([3]; effective dose = dose corresponding to 50% TGI)	pIC50 (EGFR Δ19del/T790M/C797S)	pIC50 [1]
CCc1cc(Nc2ncc(Br)c(Nc3ccc4nccnc4c3P(C)(C)=O)n2)c(OC)cc1N1CCC(N2CCN(C)CC2)CC1 [Comparable example 1, reference compound]	strong inhibitory activity	8.29	strong inhibitory effect	8.02	strong inhibitory activity	strong inhibitory effect	39.9	strong inhibitory effect	9	certain inhibitory effect	8.7	all the 5 mice died on the 6th day	all mice died of intolerance	began to decrease	decreased significantly	less than 8.6 times		
COc1cc(N2CCC(N3CCN(C)CC3)CC2)c(C)cc1Nc1ncc(Br)c(Nc2ccc3nc(C(C)C)ccc3c2P(C)(C)=O)n1 [Compound J-034, (6-((5-Bromo-2-((2-methoxy-5-methyl-4-(4-(4-methylpiperazin-1-yl)piperidin-1-yl)phenyl)amino)pyrimidin-4-yl)amino)-2-isopropylquinolin-5-yl)dimethylphosphine oxide]		7.64		6.53			189		5.8								9.92	6.36
COc1cc(Nc2ncc(Br)c(Nc3ccc4nc(C5CC5)ccc4c3P(C)(C)=O)n2)c(C)cc1N1CCN(C2CCCC2)CC1 [Compound J-039, (6-((5-Bromo-2-((4-(4-cyclopentylpiperazin-1-yl)-5-methoxy-2-methylphenyl)amino)pyrimidin-4-yl)amino)-2-cyclopropylquinolin-5-yl)dimethylphosphine oxide]		7.47		7.67			256		12								9.30	5.96
COc1cc(N2CCC(N3CCN(C)CC3)CC2)c(C)cc1Nc1ncc(Br)c(Nc2ccc3ncccc3c2P(C)(C)=O)n1 [Compound J-041, (6-((5-Bromo-2-((2-methoxy-5-methyl-4-(4-(4-methylpiperazin-1-yl)piperidin-1-yl)phenyl)amino)pyrimidin-4-yl)amino)quinolin-5-yl)dimethylphosphine oxide]		7.94		7.60			354		28.4								9.70	6.64
CCCc1ccc2c(P(C)(C)=O)c(Nc3nc(Nc4cc(C)c(N5CCC(N6CCN(C)CC6)CC5)cc4OC)ncc3Br)ccc2n1 [Compound J-042, (6-((5-Bromo-2-((2-methoxy-5-methyl-4-(4-(4-methylpiperazin-1-yl)piperidin-1-yl)phenyl)amino)pyrimidin-4-yl)amino)-2-propylquinolin-5-yl)dimethylphosphine oxide]		7.68		6.97			296		8.18								9.52	6.43
